# According to patent US20160038459A1, “COMPOSITIONS AND METHODS FOR THE TREATMENT OF NATAL AND PRE-NATAL CONDITIONS WITH ALPHA-TOCOPHEROL” (Northwestern University, priority 2014, published 2016):
# Experiments:
# [1] = tested on: lung tissue cytokines and eotaxins; test: Pup lung cytokines, chemokines, IDO and MHCII by qPCR; BAL CCL24 by ELISA; assay type: in vivo, C57BL/6 mice
# Procedure: Total RNA was isolated from 50 to 100 mg lung tissue using the QIAGEN RNeasy Fibrous Tissue Mini Kit. cDNA was prepared using a SuperScript II RNase H-Reverse Transcriptase kit (Invitrogen) and analyzed by PCR on an ABI 7300 Thermal Cycler (Applied Biosystems). Taqman probes and Taqman Universal Master Mix were used as directed (Applied Biosystems). CCL24 in the BAL also was examined by ELISA (Raybiotech).
# [2] = tested on: pup lung dendritic cell subsets; test: Flow cytometry analysis of pup lung dendritic cell subsets; assay type: in vivo, C57BL/6 mice
# Procedure: (§1) Following BAL of pups, lungs were removed for analysis of dendritic cell types by flow cytometry. In the fetus, hematopoiesis occurs in the fetal livers. Gestational day 18 fetal livers were collected for analysis of fetal liver DCs. Briefly, tissues were minced and suspended in 5 ml of RPMI solution containing 1 mg/ml collagenase D (Roche) and 0.2 mg/ml DNase I (Roche) at 37° C. with agitation. After 1 h, samples were filtered through sterile 70-μm mesh tissue, centrifuged, and resuspended in 5% FBS-RPMI solution. Red blood cells were lysed in 1×BD PharmLyse Lysing Buffer (BD Biosciences), and the cells were washed two times in PBS. All centrifugation steps were carried out at 300 g for 5 min. Three million cells were used per sample for immunolabeling.
# The cells were stained for live/dead exclusion in 500 μl PBS containing 0.25 μl of Aqua fluorescent reactive dye (Molecular Probes, Invitrogen) for 20 min at room temperature in the dark. Next, FC receptors were blocked by incubating the cells in 50 μl flow cytometry staining buffer (Biolegend) with 0.75 μl purified rat anti-mouse CD16/CD32 Mouse BD FC Block (no. 553142; BD Pharmingen) for 10 min at 4° C.
# To prepare the antibodies for immunolabeling, for each sample equivalent, an antibody stock was prepared by adding the following antibodies to 50 μl of flow cytometry buffer: 1) Live/Dead Aqua fluorescent dye (no. L34957; Molecular Probes, Invitrogen), 0.25 μl/sample; 2) CD45, rat anti-mouse FITC-conjugated, 0.5 mg/ml, clone 30-F11 (no. 103107; Biolegend), 0.31 μl/sample; 3) CD11b, rat anti-mouse PE-CF594-conjugated, 0.2 mg/ml, clone M1/70 (no. 562317; BD Biosciences), 0.05 μl/sample; 4) Ly-6C, rat anti-mouse APC/Cy7-conjugated, 0.2 mg/ml, clone HK1.4 (no. 128025; Biolegend), 0.4 μl/sample; 5) CD11c, Armenian hamster anti-mouse PE/Cy7-conjugated, 0.2 mg/ml, clone N418 (no. 117317; Biolegend), 0.2 μl/sample; 6) I-A/I-E (MHCII), rat anti-mouse PerCP/Cy5.5-conjugated, 0.2 mg/ml, clone M5/114.15.2 (no. 107625; Biolegend), 0.1 μl/sample; 7) CD103, Armenian hamster anti-mouse Brilliant Violet 421-conjugated, clone 2E7 (no. 121421; Biolegend), 0.2 μl/sample; 8) CD317 (PDCA-1), rat anti-mouse APC-conjugated, 0.2 mg/ml, clone 927 (no. […]
# (§2) The cells were examined with a BD LSRII flow cytometer (BD Biosciences). […] Fluorescence Minus One staining controls were used as negative controls to identify gates for populations of interest. The following subpopulations of DCs were analyzed: 1) resident conventional DCs: CD11b+Ly6C−CD11chighMHCIIhigh; 2) CD11b+ alveolar DCs: CD11b+Ly6C−CD11c+MHCII−; 3) inflammatory DCs: CD11b+Ly6C+CD11c+MHCII+; 4) plasmacytoid DCs (pDCs): CD11b−Ly6C−CD11clowPDCA-1+MHCII−; 5) resident CD103+DCs: CD11b−Ly6C−CD11c+CD103+MHCII−; and 6) CD11b−alveolar DCs: CD11b−Ly6C−CD11c+MHCII+/−. […]
# [3] = tested on: bone marrow-derived CD11c+CD11b+ DCs; test: Bone marrow-derived dendritic cell culture with GM-CSF in vitro; assay type: cell-based, mice; conditions: 80 μM vs DMSO
# Procedure: For bone marrow-derived postnatal day 10 pup dendritic cell cultures, a single cell suspension of bone marrow from 10-day-old mice was placed in RPMI 1640, glutamine, HEPES, gentamycin sulfate, penicillin/streptomycin, and 10% heat-inactivated FCS. The bone marrow cells were treated with the DMSO solvent control (0.01%) or D-α-tocopherol (80 μM) as we previously described for in vitro treatment with D-α-tocopherol (7). The cells were stimulated with 5 ng granulocyte macrophage colony-stimulating factor (GM-CSF) per milliliter. The culture medium with tocopherol and GM-CSF was replaced on days 2, 4, and 7. […]
# [4] = tested on: fetal liver dendritic cell subsets; test: Flow cytometry analysis of gestational day 18 fetal liver dendritic cells; assay type: in vivo, C57BL/6 mice
# Procedure: as §1, with “immunolabeling. […]” for “immunolabeling.”
# as §2
# [5] = maternal supplementation during pregnancy/lactation, first litter, PND13, qPCR
# [6] = second litter, 500 mg/kg maternal diet, OVA-challenged pups from allergic mothers
# [7] = PND13 OVA-challenged pups, maternal supplementation
# [8] = bone marrow from 10-day-old neonates, 8 days
compound,measurement,setting,value
"Cc1c(C)c2c(c(C)c1O)CC[C@@](C)(CCC[C@H](C)CCC[C@H](C)CCCC(C)C)O2 [D-α-tocopherol, D-α-Tocopherol]",OVA-induced pup lung mRNA expression of CCL11,[1]; [5],inhibited
same,OVA-induced pup lung mRNA expression of CCL24,[1]; [5],inhibited
same,OVA-induced pup lung mRNA expression of IL-4,[1]; [5],inhibited
same,OVA-induced pup lung mRNA expression of IL-33,[1]; [5],inhibited
same,protein expression of CCL24 in BAL supernatant,"[1]; maternal supplementation during pregnancy/lactation, PND13, ELISA",inhibited
same,whole lung expression of IFNγ,[1]; [6],no effect
same,whole lung expression of IL-2,[1]; [6],no effect
same,whole lung expression of IL-10,[1]; [6],no effect
same,whole lung expression of MHCII,[1]; [6],no effect
same,whole lung expression of TNF-α,[1]; [6],no effect
same,whole lung mRNA expression of CCL11,[1]; [6],reduced
same,whole lung mRNA expression of CCL24,[1]; [6],reduced
same,whole lung mRNA expression of IL-4,[1]; [6],reduced
same,whole lung mRNA expression of IL-33,[1]; [6],reduced
same,whole lung mRNA expression of TSLP,[1]; [6],reduced
same,lung tissue expression of IDO,"[1]; second litter, 500 mg/kg maternal diet, pups from allergic mothers and saline mothers",reduced
same,"lung tissue number of CD11c+CD11b+ subsets of DCs, including resident conventional DCs, mDCs, and CD11b+ alveolar DCs",[2]; [7],significantly reduced
same,"pup lung CD11c+CD11b− subsets of cells, including pDCs, resident CD103+DCs, CD11b− alveolar DCs, and alveolar macrophages",[2]; [7],did not alter
same,"mean fluorescence intensity for MHCII, CD80, and CD86 on CD11c+CD11b+DCs and CD11c+CD11b−DCs","[2]; pup lung, among the groups (data not shown)",not different
same,pup lung pDC-to-cDC ratio,"[2]; supplementation of allergic mothers, OVA-challenged pups, 0.3 with basal diet",0.53
same,percent of viable cells in the culture,[3]; 8 days (data not shown),without affecting
same,number of CD45+CD11b+CD11+DCs,[3]; [8],reduced
same,number of cells with resident DC phenotype (CD45+CD11b+CD11c+Ly6c−MHCII−DCs),[3]; [8],reduced
same,fetal liver CD11c+CD11b− subsets,[4]; maternal supplementation (data not shown),not altered
same,"number of CD11c+CD11b+DCs in fetal livers, including phenotype of mDCs and of resident DCs",[4]; supplementation of allergic mothers,reduced
